{"source": "patent US20090209489A1", "about": "“Compositions for the treatment of diabetis, system PH disorders, high blood pressure, and a cancer marker system” (priority 2008, published 2009)", "origin": "cited, not measured here", "system": "Group 5 viruses", "conditions": "therapeutic doses", "data": [{"compound": "CC(=O)N[C@H]1[C@H]([C@H](O)[C@H](O)CO)OC(O)(C(=O)O)C[C@@H]1O", "note": "(stereo partly shown) [N-Acetyl-Neuraminic Acid]", "values": [{"measurement": "effectiveness at killing Group 5 viruses relative to any other known medication", "result": "more than 1000 times"}]}]}
